Measured values as given in ChEMBL document CHEMBL1156642, “Discovery of betamethasone 17alpha-carbamates as dissociated glucocorticoid receptor modulators in the rat” (Bioorg Med Chem, 2008).
Each block holds one molecule with its values, some of them ahead of it.

Experiments:
[1] = target: T1, Interstitial collagenase (Homo sapiens) (UniProt P03956); assay: Inhibition of glucocorticoid-mediated human MMP1 expression in PMA stimulated A549 cells assessed as MMP1 protein level by ELISA relative to Dexamethasone; assay type: cell-based; set-up: scale not given: the % may be the effect or the level left
T1 sequence (whole entry): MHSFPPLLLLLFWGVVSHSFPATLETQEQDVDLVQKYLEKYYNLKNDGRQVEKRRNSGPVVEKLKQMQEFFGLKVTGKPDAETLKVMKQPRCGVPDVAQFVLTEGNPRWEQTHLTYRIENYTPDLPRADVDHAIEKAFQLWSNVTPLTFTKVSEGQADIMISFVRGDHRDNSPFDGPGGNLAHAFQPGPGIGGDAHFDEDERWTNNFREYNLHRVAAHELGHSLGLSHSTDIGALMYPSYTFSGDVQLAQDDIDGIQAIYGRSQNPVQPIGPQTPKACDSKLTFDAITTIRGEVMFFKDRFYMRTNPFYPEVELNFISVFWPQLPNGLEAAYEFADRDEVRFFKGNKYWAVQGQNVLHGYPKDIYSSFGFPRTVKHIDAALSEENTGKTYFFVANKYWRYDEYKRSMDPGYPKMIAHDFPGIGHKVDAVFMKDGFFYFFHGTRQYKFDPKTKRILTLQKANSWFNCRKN

[2] = species on record: Rattus norvegicus; assay: Transactivation activity of glutamine synthase in rat skeletal muscle cells relative to Dexamethasone; assay type: cell-based
[3] = target: T2, Glucocorticoid receptor (Homo sapiens, UniProt P04150)
T2 sequence (P04150 whole entry): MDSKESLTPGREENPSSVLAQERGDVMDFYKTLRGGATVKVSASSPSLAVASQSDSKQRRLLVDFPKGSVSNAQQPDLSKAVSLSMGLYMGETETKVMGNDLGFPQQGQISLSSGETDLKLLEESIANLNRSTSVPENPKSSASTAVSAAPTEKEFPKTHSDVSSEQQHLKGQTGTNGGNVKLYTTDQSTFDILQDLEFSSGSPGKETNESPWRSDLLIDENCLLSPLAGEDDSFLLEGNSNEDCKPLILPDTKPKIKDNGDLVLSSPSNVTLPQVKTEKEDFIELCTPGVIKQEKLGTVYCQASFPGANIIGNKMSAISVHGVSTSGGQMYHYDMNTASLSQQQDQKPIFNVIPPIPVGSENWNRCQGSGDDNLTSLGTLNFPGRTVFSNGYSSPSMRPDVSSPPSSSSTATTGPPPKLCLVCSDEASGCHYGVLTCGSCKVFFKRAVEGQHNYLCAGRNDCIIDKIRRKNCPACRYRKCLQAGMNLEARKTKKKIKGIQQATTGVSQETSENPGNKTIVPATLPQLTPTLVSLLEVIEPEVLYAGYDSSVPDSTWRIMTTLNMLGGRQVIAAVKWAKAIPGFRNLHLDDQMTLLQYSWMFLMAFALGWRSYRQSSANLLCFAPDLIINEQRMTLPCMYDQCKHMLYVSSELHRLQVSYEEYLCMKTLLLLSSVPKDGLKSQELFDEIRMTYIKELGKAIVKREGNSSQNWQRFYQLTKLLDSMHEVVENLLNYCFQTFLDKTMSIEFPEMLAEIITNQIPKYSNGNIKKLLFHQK
Description: Inhibition of human glucocorticoid receptor

[4] = target: T3, Progesterone receptor (Homo sapiens, UniProt P06401); assay: Inhibition of human progesterone receptor
T3 sequence (P06401 whole entry): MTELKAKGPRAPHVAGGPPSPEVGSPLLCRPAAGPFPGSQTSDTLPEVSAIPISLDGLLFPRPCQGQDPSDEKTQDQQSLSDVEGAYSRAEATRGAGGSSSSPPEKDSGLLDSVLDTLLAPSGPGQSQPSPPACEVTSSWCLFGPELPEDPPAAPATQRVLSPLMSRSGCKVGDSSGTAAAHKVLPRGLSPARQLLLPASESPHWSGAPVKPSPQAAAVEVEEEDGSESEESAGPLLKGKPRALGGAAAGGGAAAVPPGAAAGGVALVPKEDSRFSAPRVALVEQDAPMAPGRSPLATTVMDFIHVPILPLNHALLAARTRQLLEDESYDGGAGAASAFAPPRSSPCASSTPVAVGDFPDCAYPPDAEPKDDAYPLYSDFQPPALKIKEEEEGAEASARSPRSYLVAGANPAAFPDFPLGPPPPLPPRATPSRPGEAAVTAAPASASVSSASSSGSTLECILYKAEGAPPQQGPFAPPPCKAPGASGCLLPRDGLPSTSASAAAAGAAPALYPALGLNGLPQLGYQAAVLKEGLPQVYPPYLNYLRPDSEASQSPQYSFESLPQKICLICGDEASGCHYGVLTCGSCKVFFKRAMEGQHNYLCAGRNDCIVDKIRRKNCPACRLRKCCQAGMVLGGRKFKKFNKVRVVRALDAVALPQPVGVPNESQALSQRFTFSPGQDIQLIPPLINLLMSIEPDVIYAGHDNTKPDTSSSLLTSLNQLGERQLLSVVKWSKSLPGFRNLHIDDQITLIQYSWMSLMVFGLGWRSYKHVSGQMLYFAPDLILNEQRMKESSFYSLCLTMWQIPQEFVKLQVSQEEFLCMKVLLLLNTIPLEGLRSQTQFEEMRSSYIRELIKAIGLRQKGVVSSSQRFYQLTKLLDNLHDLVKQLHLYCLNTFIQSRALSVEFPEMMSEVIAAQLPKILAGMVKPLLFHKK

[5] = Transactivation activity of glutamine synthase in rat skeletal muscle cells; assay type: cell-based

Structure (SMILES): CC(C)NC(=O)O[C@]1(C(=O)CO)[C@@H](C)C[C@H]2[C@@H]3CCC4=CC(=O)C=C[C@]4(C)[C@@]3(F)[C@@H](O)C[C@@]21C
Activity [1]: 105%
Activity [2]: 26%
IC50 [3]: 0.0215 µM

Structure (SMILES): C[C@H]1C[C@H]2[C@@H]3CCC4=CC(=O)C=C[C@]4(C)[C@@]3(F)[C@@H](O)C[C@]2(C)[C@@]1(OC(=O)NCC(C)(C)C)C(=O)CO
Activity [1]: 44.7%
IC50 [3]: 0.352 µM

Activity [1]: 106%
IC50 [4]: > 1 µM
IC50 [3]: 0.0174 µM
Structure (SMILES): C=CCNC(=O)O[C@]1(C(=O)CO)[C@@H](C)C[C@H]2[C@@H]3CCC4=CC(=O)C=C[C@]4(C)[C@@]3(F)[C@@H](O)C[C@@]21C
Activity [2]: 16%

Structure (SMILES): C[C@H]1C[C@H]2[C@@H]3CCC4=CC(=O)C=C[C@]4(C)[C@@]3(F)[C@@H](O)C[C@]2(C)[C@@]1(OC(=O)NC(C)(C)C)C(=O)CO
EC50 [5]: 0.00037 µM
Activity [1]: 94%
Activity [2]: 64%
IC50 [3]: 0.0024 µM

Structure (SMILES): CCC(C)(C)NC(=O)O[C@]1(C(=O)CO)[C@@H](C)C[C@H]2[C@@H]3CCC4=CC(=O)C=C[C@]4(C)[C@@]3(F)[C@@H](O)C[C@@]21C
Activity [1]: 65.9%
Activity [2]: 35%
IC50 [3]: 0.0551 µM

Structure (SMILES): CCCCNC(=O)O[C@]1(C(=O)CO)[C@@H](C)C[C@H]2[C@@H]3CCC4=CC(=O)C=C[C@]4(C)[C@@]3(F)[C@@H](O)C[C@@]21C
Activity [1]: 98%
Activity [2]: 31.3%
IC50 [3]: 0.0028 µM

Structure (SMILES): CCCCCNC(=O)O[C@]1(C(=O)CO)[C@@H](C)C[C@H]2[C@@H]3CCC4=CC(=O)C=C[C@]4(C)[C@@]3(F)[C@@H](O)C[C@@]21C
EC50 [5]: 0.0004 µM
Activity [1]: 97.5%
Activity [2]: 60.3%
IC50 [3]: 0.0021 µM

Structure (SMILES): C[C@H]1C[C@H]2[C@@H]3CCC4=CC(=O)C=C[C@]4(C)[C@@]3(F)[C@@H](O)C[C@]2(C)[C@@]1(OC(=O)NC1CCCC1)C(=O)CO
Activity [1]: 76.1%
Activity [2]: 23%
IC50 [3]: 0.0038 µM

Structure (SMILES): C[C@H]1C[C@H]2[C@@H]3CCC4=CC(=O)C=C[C@]4(C)[C@@]3(F)[C@@H](O)C[C@]2(C)[C@@]1(OC(=O)NCCC(C)(C)C)C(=O)CO
EC50 [5]: 0.576 µM
Activity [1]: 56.3%
Activity [2]: 61.8%
IC50 [3]: 0.0123 µM
